Reference: US9113629B2, “4-amino-6-(4-substituted-phenyl)-picolinates and 6-amino-2-(4-substituted-phenyl)-pyrimidine-4-carboxylates and their use as herbicides” (DOW AGROSCIENCES LLC, priority 2013, dated 2015)
Where two headings read alike, the source gives them in different places.

Experiments:
[1] = test system: Key Grass and Sedge Weeds as well as Grass Crops; experiment: Post-emergent Test II herbicidal activity (Table 6); assay type: in vivo; settings: post-emergence, 336 h; for pest or weed control at 70 g/ha: application rate 70 g ai/ha; for pest or weed control at 140 g/ha: application rate 140 g ai/ha
How it was run: (§1)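 Foliar application at 187 L/ha to greenhouse-grown seedlings (first or second true leaf); subirrigation thereafter. Visual 0–100% injury at 14 d relative to untreated plants.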

[2] = test system: Key Broadleaf Weed and Crop Species; experiment: Post-emergent Test II herbicidal activity (Table 5); assay type: in vivo; settings: post-emergence, 336 h, post-emergent, 14 days after application; for pest or weed control at 70 g/ha: 70 g ai/ha; for pest or weed control at 140 g/ha: 140 g ai/ha
How it was run: as §1

[3] = CYPES: yellow nutsedge (Cyperus esculentus), read-out: Visual Growth Reduction (%) 14 Days After Application, CYPES
[4] = DIGSA: crabgrass (Digitaria sanguinalis), read-out: Visual Growth Reduction (%) 14 Days After Application, DIGSA
[5] = ECHCG: barnyardgrass (Echinochloa crus-galli), read-out: Visual Growth Reduction (%) 14 Days After Application, ECHCG
[6] = ORYSA: rice (Oryza sativa), read-out: Visual Growth Reduction (%) 14 Days After Application, ORYSA
[7] = SETFA: giant foxtail (Setaria faberi), read-out: Visual Growth Reduction (%) 14 Days After Application, SETFA
[8] = SORVU: grain sorghum (Sorghum vulgare), read-out: Visual Growth Reduction (%) 14 Days After Application, SORVU
[9] = TRZSS (wheat, Triticum aestivum), read-out: Visual Growth Reduction (%) 14 Days After Application, TRZSS
[10] = ZEAMX: maize, corn (Zea mays), read-out: Visual Growth Reduction (%) 14 Days After Application, ZEAMX
[11] = ABUTH: velvetleaf (Abutilon theophrasti), read-out: Visual Growth Reduction (%) 14 Days After Application ABUTH
[12] = AMARE: redroot pigweed (Amaranthus retroflexus), read-out: Visual Growth Reduction (%) 14 Days After Application AMARE
[13] = BRSNN: oilseed-rape, canola (Brassica napus), read-out: Visual Growth Reduction (%) 14 Days After Application BRSNN
[14] = CHEAL: lambsquarters (Chenopodium album), read-out: Visual Growth Reduction (%) 14 Days After Application CHEAL
[15] = EPHHL: wild poinsettia (Euphorbia heterophylla), read-out: Visual Growth Reduction (%) 14 Days After Application EPHHL
[16] = HELAN: sunflower (Helianthus annuus), read-out: Visual Growth Reduction (%) 14 Days After Application HELAN
[17] = VIOTR: wild pansy (Viola tricolor), read-out: Visual Growth Reduction (%) 14 Days After Application VIOTR

`C=Cc1c(N)nc(-c2ccc(C#N)cc2F)nc1C(=O)OC` [Compound 98, Methyl 6-amino-2-(4-cyano-2-fluorophenyl)-5-vinylpyrimidine-4-carboxylate] showed a pest or weed control at 70 g/ha ([1]; Triticum aestivum, TRZSS (wheat), read-out: Visual Growth Reduction (%) 14 Days After Application, TRZSS) of 0 to 29%, a pest or weed control at 70 g/ha [1, 3] of 0 to 29% and a pest or weed control at 140 g/ha [1, 3] of 0 to 29%. The pest or weed control at 70 g/ha [1, 4] was 0 to 29%, the pest or weed control at 140 g/ha [1, 4] was 0 to 29% and the pest or weed control at 70 g/ha [1, 5] was 0 to 29%. The pest or weed control at 140 g/ha [1, 5] was 0 to 29%, the pest or weed control at 70 g/ha [1, 6] was 0 to 29% and the pest or weed control at 140 g/ha [1, 6] was 0 to 29%. It also gave a pest or weed control at 70 g/ha [1, 7] of 0 to 29%, a pest or weed control at 140 g/ha [1, 7] of 0 to 29% and a pest or weed control at 70 g/ha [1, 8] of 0 to 29%. The pest or weed control at 140 g/ha [1, 8] was 0 to 29%, the pest or weed control at 140 g/ha [1, 9] was 0 to 29% and the pest or weed control at 70 g/ha [1, 10] was 0 to 29%. The pest or weed control at 140 g/ha [1, 10] was 0 to 29%, the pest or weed control at 70 g/ha [2, 11] was 0 to 29% and the pest or weed control at 140 g/ha [2, 11] was 0 to 29%. For the same compound, the pest or weed control at 70 g/ha [2, 12] was 0 to 29%, the pest or weed control at 140 g/ha [2, 12] was 0 to 29% and the pest or weed control at 70 g/ha [2, 13] was 0 to 29%. The pest or weed control at 140 g/ha [2, 13] was 0 to 29%, the pest or weed control at 70 g/ha [2, 14] was 0 to 29% and the pest or weed control at 140 g/ha [2, 14] was 0 to 29%. The pest or weed control at 70 g/ha [2, 15] was 0 to 29%, the pest or weed control at 140 g/ha [2, 15] was 0 to 29% and the pest or weed control at 70 g/ha [2, 16] was 0 to 29%. It also gave a pest or weed control at 140 g/ha [2, 16] of 0 to 29%, a pest or weed control at 70 g/ha [2, 17] of 0 to 29% and a pest or weed control at 140 g/ha [2, 17] of 0 to 29%.

`COC(=O)c1nc(-c2ccc(C#N)cc2F)c(F)c(N)c1Cl` [Compound 44, Methyl 4-amino-3-chloro-6-(4-cyano-2-fluorophenyl)-5-fluoropicolinate] was tested, and the pest or weed control at 70 g/ha [1, 3] was 30 to 44%, the pest or weed control at 140 g/ha [1, 3] was 45 to 59% and the pest or weed control at 70 g/ha [1, 4] was 0 to 29%. For the same compound, the pest or weed control at 140 g/ha [1, 4] was 0 to 29%, the pest or weed control at 70 g/ha [1, 5] was 0 to 29% and the pest or weed control at 140 g/ha [1, 5] was 0 to 29%. The pest or weed control at 70 g/ha [1, 6] was 0 to 29%, the pest or weed control at 140 g/ha [1, 6] was 0 to 29% and the pest or weed control at 70 g/ha [1, 7] was 0 to 29%. For the same compound, the pest or weed control at 140 g/ha [1, 7] was 0 to 29%, the pest or weed control at 70 g/ha [1, 8] was 0 to 29% and the pest or weed control at 140 g/ha [1, 8] was 0 to 29%. For the same compound, the pest or weed control at 70 g/ha [1, 9] was 30 to 44%, the pest or weed control at 140 g/ha [1, 9] was 30 to 44% and the pest or weed control at 70 g/ha [1, 10] was 0 to 29%. For the same compound, the pest or weed control at 140 g/ha [1, 10] was 0 to 29%, the pest or weed control at 70 g/ha [2, 11] was 30 to 44% and the pest or weed control at 140 g/ha [2, 11] was 60 to 74%. It also gave a pest or weed control at 70 g/ha [2, 12] of 75 to 84%, a pest or weed control at 140 g/ha [2, 12] of 95 to 100% and a pest or weed control at 70 g/ha [2, 13] of 0 to 29%. It also gave a pest or weed control at 140 g/ha [2, 13] of 0 to 29%, a pest or weed control at 70 g/ha [2, 14] of 75 to 84% and a pest or weed control at 140 g/ha [2, 14] of 85 to 94%. The pest or weed control at 70 g/ha [2, 15] was 85 to 94%, the pest or weed control at 140 g/ha [2, 15] was 95 to 100% and the pest or weed control at 70 g/ha [2, 16] was 85 to 94%. For the same compound, the pest or weed control at 140 g/ha [2, 16] was 95 to 100%, the pest or weed control at 70 g/ha [2, 17] was 0 to 29% and the pest or weed control at 140 g/ha [2, 17] was 0 to 29%.
